In data set [1] the test system is DoHH2 cultures treated with VP-16. Kind of data set: Combination tracking of cell status with compound (IA) plus compound (IIA), flow cytometry. Format: cell-based, human. The settings on record: 20 μM compound (IIA) and 4 μM compound (IA), 10 minutes, VP-16 0.25 μM. The procedure: Cell culture and drug treatment: A human follicular B-lymphoma cell line was used in this study. DoHH2 was routinely maintained in RPMI 1640 supplemented with 5% FCS and 100 U ml-1 penicillin, 100 μgml^−1 streptomycin, and 2 mM glutamine. The cells were passaged twice weekly at an initiating density of 5×10^4 cells ml^−1 cultured at 37° C. in a humidified atmosphere of 5% CO2/95% air. Cells were set at 5×10^5 cells/per ml and exposed to VP-16 doses (0.25 μM) to induce apoptosis. 20 μM Compound (IIA) and 4 μM compound (IA) were added to 1 ml of cells and incubated under standard culture conditions for 10 minutes. The samples were analysed by flow cytometry.
A FACS Vantage flow cytometer (as for example above) was used. Compound (IIA) and compound (IA) fluorescent signals derived from 488 nm excitation were detected in linear mode at FL2 for Compound (IIA) (585/42 nm filters); compound (IA) signal derived from 488 nm were detected in linear mode at FL3 with a 695LP filter and a FL1/2 560 nm SP dichroic SP to determine scatter properties. Signals for forward and side scatter and fluorescence were collected for 10,000 cells using the forward light scatter parameter as the master signal. Contour plots of side versus forward scatter depict two populations of cells. The addition of Compound (IIA) and compound (IA) provide functional status of these cultures. […]
Background: In flow cytometry, cells or beads pass a laser one at a time.

A short description of data set [2]: Spectral properties (absorbance and fluorescence spectra). It counts as physicochemical. The settings on record: for Em peak / Ex peak: FIG. 1, in general terms (diagrammatically). An excerpt: (§1) These possible detection systems and others will now be described in more detail with reference to FIGS. 1 to 9. […] Therefore, the Compound of Formula (IIA) fluorescence is generally in the orange portion of the visible spectrum, whereas compound (IA) fluorescence is generally in the far red portion of the visible spectrum. […] The compound of Formula (IIA) is a cell permeant dye, and therefore it would be expected that the fluorescence signature B would be in connection with live or dead cells. […] As might perhaps be expected, it is only the fluorescence signature B associated with the cell permeant dye which is observed. […] It might be expected that a significant contribution of the observed fluorescence would emanate from the compound of Formula (IIA) dye. […] Therefore, the compound (IA) dye appears to quench the compound of Formula (IIA) signal. […] However, other mechanisms may play a role. The upshot is that it is possible to provide a “traffic light” system to indicate the state of a cell, wherein fluorescence in one spectral region A is associated with dead cells, and fluorescence in another spectral region B is associated with live cells.
Compound (IA) was synthesized using the principles described in Example 2 and stored at +4° C. as a stock solution of 5 mM compound (IA) dilution in buffer. Absorbance spectra were obtained using a spectrometer and a 20 μM solution of agent dissolved in PBS and measured in a 1 cm path quartz silica cuvette. Fluorescence spectra for a solution of 20 μM compound (IA) in a 1 cm path length semi-micro quartz cuvette were determined by excitation at 633, 589, 534, 488 nm. Fluorescence measurements were made on a Perkin Elmer LS50 spectrofluorometer with slit widths set at 10 nm. The spectrofluoremeter was equipped with a red-sensitive photomultiplier tube (Type R928; Hamamatsu Photonics KK, Japan. Data were accumulated and exported into a spread sheet to correct for the buffer control and to determine emission maxima. The results are shown in FIG. 8. Compound (IA) may be sub-optimally excited by wavelengths from 488 nm (in flow cytometry) and up to 647 nm (Exλmax 646 nm). Typically, for cell imaging, excitation is performed with either 633 nm or 647 nm wavelengths. Emission spectra are independent of excitation wavelength, ie, all the emission spectra are identical irrespective of excitation wavelength.

Data set [3] concerns live cells and dead cells. As to the kind of experiment: Cell permeant/cell impermeant dye combination staining of live and dead cells. The settings on record: for Dead cell stain / Live cell stain: combination staining pattern, predicted. The arrangement: key to Live cell stain / Dead cell stain: +: positive; −: negative. It counts as cell-based.
Text: It will be appreciated that this provides the opportunity to perform numerous advantageous two-colour, two-fluorochrome experiments. Moreover, the present inventors have realised that dye combinations of this type also provide a platform for performing a range of advantageous experiments using one or more further fluorochromes.
as §1

The next data set relates to human Jurkat cells. Kind of data set: Multi-parameter JC-1 / compound (IA) analysis of staurosporine treated cells. Format: cell-based. The settings on record: 3 μM with JC-1, Jurkat cells, 1 μM staurosporine for 4 hours. An excerpt:
In this example, the dye JC-1 (5,5′,6,6′-tetrachloro-1,1′,3,3′-tetraethylbenzimidazol-carbocyanine iodide) is a lipophilic fluorescent cation that incorporates into the mitochondrial membrane, where it can form aggregates due to the physiological maintenance membrane potential of mitochondria. Aggregation modifies the fluorescence properties of JC-1 leading to a shift from green to orange fluorescence. Flow cytometry or imaging was used to monitor the decrease of the orange fluorescence and an increase of the green fluorescence allowing apoptotic cells to be distinguished from non-apoptotic cells.
Cell culture and drug treatment: A Jurkat cell line was used in this study Jurkat cultures was routinely maintained in RPMI 1640 supplemented with 10% FCS and 100 U ml-1 penicillin, 100 μg ml-1 streptomycin, and 2 mM glutamine. […] These were then analysed by flow cytometry or placed into a Nunc, 2 Well Lab-Tek II, (Fisher Scientific) and analysed by three channel confocal microscopy.
Multi-parameter flow cytometry of staurosporine treated cells A FACS Vantage flow cytometer (as for example above). […] JC-1 two parameter fluorescent signal were derived from 488 nm excitation were detected in logarithmic mode Green J-monomer was detected using FL1 (530/30 nm emission); Orange J-aggregate was detected using FL2 (585/42 nm emission). […]

For data set [4], the system named is fixed U-2 OS human osteosarcoma cells. Kind of data set: Nuclear staining of fixed cells by fluorescence microscopy. Format: cell-based. The settings on record: 20 μM, cells fixed with 4% paraformaldehyde. The procedure:
Cell culture: Human osteosarcoma cells U-20S (ATCC HTB-96) cells (adherent) were cultured in McCoy's 5a medium supplemented with 10% foetal calf serum (FCS), 1 mM glutamine, and antibiotics and incubated at 37° C. in an atmosphere of 5% CO2 in air. For fluorescence imaging experiments, cells were grown at a density of 1×10^5 cells ml^−1 as a monolayer in coverglass bottomed chambers (Nunc, 2 Well Lab-Tek II, Fisher Scientific). Imaging: Following a 24 hour period cells were then fixed with 4% paraformaldehyde in PBS for 15-30 min at room temperature. No washing step is required. Compound (IA) was used in a manner appropriate to being the final staining procedure, after any treatment. Compound (IA) was added directly at 20 μM in to a 0.5 ml PBS overlay of the adherent cells. Cells were directly viewed using wide-field fluorescence microscopy. Chambers were placed onto an Axiovert 100 microscope (Carl Zeiss, Welwyn Garden City, UK and using a 40×, 1.3 NA oil immersion plan apochromat lens).fluorescence images (Ex: 620/60 nm; Em 700/75 nm) nm captured using an ORCA-ER CCD camera (Hamamatsu, Reading, UK) and MetaMorph (MDS, USA) acquisition software. […] The compound (IA) staining of nuclei were segmented using a simple threshold algorithm which depict the nuclei, and provide binary or mask information of each nucleus (object) localization. […]

`CN(C)CCNc1cccc2c1C(=O)c1cccc(NCCN(C)C)c1C2=O` [Compound (IIA), 1,5-Bis{[2-(dimethylamino)ethyl]amino}anthracene-9,10-dione]: the Cell fraction identified result in data set [1] is on record as “positive cells represent the live cell (viable) fraction”. Also, in data set [2], the Em peak came out at 615 nm and the Ex peak amounted to 518 nm. In addition, in data set [3], the Cell permeation property entry is “cell permeant”, the Dead cell stain entry is on record as “−” and the Live cell stain entry is given as “+”. Also, the “Fluorescence observed in dead cells” value in data set [3] (in combination with compound (IA)) is “little or no fluorescence”.

On to “1,5-Bis{[2-(trimethylamino)ethyl]amino}-5,8-dihydroxyanthracene-9,10-dione iodide [Compound (IA)]”, for which the “Discrimination of early and late apoptosis sub-fractions” value with human Jurkat cells is given as “can depict these sub-fractions”. Further, the “Nuclear localisation of dye” value in data set [4] is listed as “localization of high levels of compound (IA) in the nucleus”. In addition, in data set [1], the Cell fraction identified result is recorded as “identifies the non-intact cell fraction”. Besides, the Exλmax in data set [2] (20 μM solution in PBS) is reported as 646 nm. In data set [2], the Em peak is reported as 660 nm and the Ex peak was found to be 620 nm. Moreover, in data set [3], the Cell permeation property result is on record as “cell impermeant”, the Dead cell stain result is “+” and the Live cell stain result was “−”.

Values taken from patent US9051467B2, “Method of analysing a cell or other biological material containing a nucleic acid” (BIOSTATUS LIMITED, priority 2010, dated 2015).
